Measured values reported in patent US20220390432A1, “METHODS OF CHARACTERIZING AND UTILIZING AGENT-CONDENSATE INTERACTIONS” (Whitehead Institute for Biomedical Research, priority 2019, published 2022).

How the values were obtained:
HP1α = molecular target: T1, HP1α (Homo sapiens, UniProt P45973); assay: In vitro droplet assay, small molecule partitioning into HP1α condensates; assay type: binding
T1 construct: HP1α—full length, amino acids 1-191; 6xHis (N); made in house; host or cells: LOBSTR cells (E. coli)
T1 sequence (P45973 whole entry, the tested form may be a part): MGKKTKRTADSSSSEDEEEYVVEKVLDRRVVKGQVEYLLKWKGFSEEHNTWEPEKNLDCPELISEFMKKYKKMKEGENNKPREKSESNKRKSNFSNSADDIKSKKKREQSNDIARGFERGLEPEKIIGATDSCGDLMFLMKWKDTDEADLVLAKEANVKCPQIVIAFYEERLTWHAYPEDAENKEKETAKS
Experimental: Recombinant BFP, GFP, or mCherry fusion proteins were concentrated and desalted to an appropriate protein concentration and 125 mM NaCl using Amicon Ultra centrifugal filters (30K MWCO, Millipore). Recombinant protein was added too. […] The protein solution was immediately loaded onto glass bottom 384 well plate (Cellvis P384-1.5H-N) and imaged with an Andor confocal microscope with a 150× objective. Unless indicated, images presented are of droplets settled on the glass coverslip.
Drug and small molecule concentrations used in the droplet experiments are as follows:
To analyze in vitro droplet experiments, custom Python scripts using the scikit-image package were written to identify droplets and characterize their size, shape and intensity. […] After segmentation, mean intensity for each droplet was calculated while excluding pixels near the phase interface, and background-corrected by subtracting intensity of dark images of droplet formation buffer only. Droplets identified in the channel of the fluorescent protein from ten independent fields of view were quantified for each experiment. The maximum intensity of signal within the droplets was calculated for each channel, the maximum intensity in the drug channel was termed “maximum drug intensity”. […]

[1] = test system: platinated DNA in HCT116 cells; assay: Cisplatin/condensate co-immunofluorescence; assay type: cell-based, human; details: HCT116, 50 μM cisplatin for 6 hours
Experimental: HCT116 cells were plated in 24-well plate at 50 k cells per well to yield 100 k cells after 21 hours (doubling time of HCTs). Cells were permeabilized using a solution of Tx100 in media at 0.55 pmol/cell for 12 minutes at 37° C. Cells were then washed with 500 ul media and treated with 500 ul of 50 uM cisplatin in media for 6 hours. After 6 hours, the cells were washed once with room temperature PBS and then fixed with 500 uL 4% formaldehyde in PBS for 12 min at room temperature. The cells were then washed 3 more times with PBS. Coverslips were put into a humidifying chamber or stored at 4° C. in PBS. Permeabilization of cells were performed using 0.5% Triton X-100 (Sigma Aldrich, X100) in PBS for 10 minutes followed by three PBS washes. Cells were blocked with 4% IgG-free Bovine Serum Albumin, BSA, (VWR, 102643-516) for 30 minutes and the primary antibody was added at a concentration of 1:500 in PBS for 4-16 hours. […]
For the analysis of co-immunofluorescence data, custom python scripts were written to both process and analyze the 3D image data from IF and DAPI channels. Nuclei were detected using the Triangle thresholding method and a nuclear mask was applied the IF channels. […] Percentage of cisplatin overlap was calculated by the number of defined nuclear cisplatin puncta that overlapped with the protein of interest puncta divided by the total number of nuclear cisplatin puncta.

**Q.** What does the source list for `N.N.[Cl][Pt][Cl]` [cisplatin]?
**A.** partitioning / incorporation into HP1α droplets (HP1α): freely diffuses; colocalization of platinated DNA with nuclear condensates [1]: frequently colocalized with MED1 condensates, but not with HP1α or FIB1 condensates
